Results as given in article PMC9542723, “Correlation between the drug concentration of polymyxin B and polymyxin B‐associated acute kidney injury in critically ill patients: A prospective study” (Pharmacology Research & Perspectives, 2022).
Positions of bridges follow the written chain, without caps; N, C: chain ends. Non-standard residues stand in square brackets, D forms with d. Residues, ends and D or L forms follow the SMILES beside them. *: point of attachment. X1 = CC[C@H](C)CCCCC(=O)*; Dab = NCC[C@H](N)C(=O)O

Key:
[1] = test system: critically ill patients; experiment: ROC curve analysis of PB PK parameters for predicting PB-AKI; design: species or system human; conditions: best cut point by maximised index
Description: Data are reported as categorical variables or numerical variables. Continuous normally distributed numerical variables are expressed as the means ± standard deviations, and continuous non‐normally distributed variables are expressed as the median (interquartile range). ANOVA test was used to compare the continuous normally distributed variables, Kruskal–Wallis rank sum test was used to compare the continuous non‐normally distributed variables, and Chi‐square test was used to compare the rates. The sensitivity and specificity of C 1/2, C min, and estimated AUC0–24 for the development of AKI were determined using ROC curve analysis. AKI occurrence as the outcome, to maximize the Jorden index to find the best entry point. Statistical significance was defined as p < .05. SPSS version 22.0 (SPSS Inc.) was used for all statistical calculations.

[2] = test system: critically ill patients; experiment: Occurrence of PB-associated acute kidney injury (KDIGO criteria) after intravenous PB; format: in vivo, human; conditions: critically ill patients without basic renal insufficiency, 26/52, PB i.v. more than 3 days
Description: (§1) Inclusion criteria included age ≥ 18 years and intravenous administration of PB for more than 3 days. Exclusion criteria included PB administration of a daily dose of 1.5–2.5 mg/kg <3 days, underlying chronic renal insufficiency or existing AKI, or renal replacement therapy already performed. The loading dose and maintenance dose of PB for each patient depended on the doctors' decisions at a daily dose of 1.5–2.5 mg/kg in evenly two doses. PB was administered as an intermittent infusion over approximately 1 h. Patients were divided into an AKI group and a non‐AKI group according to whether they developed new AKI after PB application according to Kidney Disease Improving Global Outcomes (KDIGO) diagnostic criteria.[20] An increase in serum creatinine (Scr) to 50% of the base value within 7 days or an increase in Scr of more than 26.5 μmol/L within 2 days or oliguria is diagnosed as AKI according to KDIGO's diagnostic criteria.

[3] = test system: critically ill patients; conditions: previous clinical studies; cited from earlier work
Description: Estimated AUC0–24 is a predictor for PB‐AKI, and an estimated AUC0–24 ≥ 97.72 mg·h/L was identified as a significant breakpoint for PB‐AKI.

[4] = Steady-state serum concentrations of PB (PB1 + PB2) by UHPLC-MS/MS in critically ill patients; format: in vivo, human; conditions: median (IQR); for Estimated AUC0–24: double the AUC0-12 by linear trapezoidal approximation from three samples
Description: as §1
The estimated area under the plasma concentration–time curve from 0 to 24 h (AUC0–24) was the main PK variable for PB. From each patient, three blood samples were taken after at least […] doses of PB: blood sample A (C max) was collected within 30 min after the end of intravenous infusion of PB for the peak concentration, blood sample B (C 1/2) was a mid‐dose blood sample taken 50% of the way through a dosing interval, and blood sample C (C min) was a pre‐dose concentration taken at the end of a dosing interval (within 30 min of the next dose, see Figure 1). The serum was separated and stored at −70°C until assay.
The PB1 and PB2 serum concentrations were measured using a validated ultrahigh performance liquid chromatography–tandem mass spectrometry assay method.[21] The C max, C 1/2, and C min of steady‐state (after at least 5 doses) PB1 and PB2 components were determined according to the above method: Cmax=Cmax−PB1+Cmax−PB2, C1/2=C1/2−PB1+C1/2−PB2, Cmin=Cmin−PB1+Cmin−PB2,
The estimated area under the concentration–time curve from 0 to 12 h (AUC0–12) was calculated using the linear trapezoidal approximation[22] and the estimated AUC0–24 from 0 to 24 h (AUC0–24) was calculated as double the AUC0–12, [23] assuming a steady state (after at least 4–5 doses) when PB was administered every 12 h.

[5] = test system: human renal tubular cells; conditions: cited from earlier work
Description: In recent years, PB‐AKI has been increasingly reported, which is a problem that should not be ignored.[13], [17], [28] Studies have shown that the main features of PB‐AKI include acute renal tubular injury and reduced Ccr.[25] In a mouse study, PB distribution in renal tissue after intravenous administration was detected using PB‐specific monoclonal antibody immunostaining and was mainly concentrated in the renal cortex, especially in the proximal tubu ...

Molecule	Cutoff value for estimated AUC0–24 predicting PB-AKI [1] [ng·h/mL]	Cutoff value for C 1/2 predicting PB-AKI ([1]; p = .003) [mg/L]	Incidence of AKI caused by intravenous PB [2] [%]	Estimated AUC0–24 that predicts nephrotoxicity of PB treatment [3] [ng·h/mL]	Estimated AUC0–24 ([4]; AKI group (n = 26))	level at 6 h ([4]; human, iv, AKI group (n = 26), 50% of the way through a 12 h dosing interval, serum, sum PB1+PB2, UHPLC-MS/MS, read-out: C 1/2, middle serum concentration through a dosing interval) [ng/mL]	Cmax ([4]; human, iv, AKI group (n = 26), within 30 min after end of 1 h i.v. infusion, serum, sum PB1+PB2, UHPLC-MS/MS, read-out: C max, peak serum concentration of PB) [ng/mL]	Estimated AUC0–24 ([4]; non-AKI group (n = 26))	Estimated AUC0–24 ([4]; total patients (N = 52))	C max, peak serum concentration of PB ([4]; total patients (N = 52), within 30 min after end of 1 h i.v. infusion, daily dose 1.5-2.5 mg/kg in two doses, serum, sum PB1+PB2, UHPLC-MS/MS)	Concentration of polymyxin in renal tubular cells relative to extracellular [5] [times]
CC[C@H](C)CCCCC(=O)N[C@@H](CCN)C(=O)N[C@H](C(=O)N[C@@H](CCN)C(=O)N[C@H]1CCNC(=O)[C@H]([C@@H](C)O)NC(=O)[C@H](CCN)NC(=O)[C@H](CCN)NC(=O)[C@H](CC(C)C)NC(=O)[C@@H](Cc2ccccc2)NC(=O)[C@H](CCN)NC1=O)[C@@H](C)O [PB, polymyxin B] (X1-[Dab]T[Dab][Dab][Dab][dF]L[Dab][Dab]T; lactam 4-C)	97720	3.375	50	> 100000	102.37 (86.18–120.61) mg·h/L	3940	6800	85.5 (69.16–97.55) mg·h/L	92.07 (77.11–118.02) mg·h/L	6.69 (5.56–8.36) mg/L	–
polymyxin	–	–	–	–	–	–	–	–	–	–	4760
